Reference: patent US10246421B2, “Indazolyl- and indolyl-benzamide derivatives” (ESANEX, INC., priority 2014, dated 2019)

Tests used:
Format in all cases: cell-based
[1] = test system: K562; assay: Cell proliferation assay, K562; settings: Homo sapiens
Experimental: (§1) A panel of cancer cell lines may be obtained from the DCTP Tumor Repository, National Cancer Institute (Frederick, Md.) or ATCC (Rockville, Md.). Cell cultures are maintained in Hyclone RPMI 1640 medium (Logan, Utah) supplemented with 10% fetal bovine serum and 20 mM HEPES buffer, final pH 7.2, at 37° C. with a 5% CO2 atmosphere. Cultures are maintained at sub-confluent densities. Human umbilical vein endothelial cells (HUVEC) are purchased from Clonetics, a division of Cambrex (Walkersville, Md.). Cultures are established from cryopreserved stocks using Clonetics EGM-2 medium supplemented with 20 mM HEPES, final pH 7.2, at 37° C. with a 5% CO2 atmosphere.
(§2) For proliferation assays, cells are seeded with the appropriate medium into 96 well plates at 1,000-2,500 cells per well, depending on the cell line, and are incubated overnight. The following day, test compound, DMSO solution (negative control), or Actinomycin D (positive control) is added to the appropriate wells as 10× concentrated stocks prepared in phosphate buffered saline. The cell plates are then incubated for an additional 2-5 days, depending on the cell line, to allow proliferation to occur. To measure cell density, 50 μL of WST-1 solution (Roche Applied Science, IN) diluted 1:5 in phosphate buffered saline is added to each well, and the cells incubated for an additional 1-5 hrs, again depending on the cell line. Optical density is determined for each well at […] using a Tecan GeniosPro plate reader (RTP, NC). The percentage of cell growth is determined by comparing the cell growth in the presence of test compounds to the cells treated with DMSO vehicle (control, 100% growth) and cells treated with Actinomycin D (10 μM, 0% growth).
(§3) Immediately after the WST-1 determination, the medium is removed from the cell lines, and the plates stored at −80° C. Using these assay plates, relative amounts of DNA in each well are determined using the Cyquant DNA assay kit from […] (Eugene, Oreg.) following the manufacturer's directions. Results for each compound treatment are compared to DMSO vehicle control (100%) and 10 μM Actinomycin D treated cells (0%).

[2] = test system: NCI-H460; assay: Cell proliferation assay, NCI-H460; settings: Homo sapiens
Experimental: as §1, §2, §3

[3] = test system: PC-3; assay: Cell proliferation assay, PC-3; settings: Homo sapiens
Experimental: as §1, §2, §3

[4] = test system: A375; assay: Cell proliferation assay, A375; settings: Homo sapiens, A-375
Experimental: as §1, §2, §3

[5] = test system: HSP70; assay: A375 imaging assay, HSP70 induction; settings: Homo sapiens, A-375, 24 hours treatment
Experimental: (§4) Cells of multiple human tumor lines were plated in Packard Viewplate-96, incubated overnight, and then treated with test compound for 24 hours. Following treatment, cell monolayers were fixed using standard methods and treated with antibodies targeted to the indicated Hsp90 clients. Primary antibodies were detected using a fluoroscene isothiocyanate (FITC)-conjugated anti-mouse antibody and a tetramethyl rhodamine isothiocyanate (TRITC)-conjugated anti-rabbit antibody. Deoxyribonucleic acid was stained and images were obtained using the compartmental analysis algorithm on a Cellomics Array scan 4.5 according to manufacturer instructions. Average intensities for vehicle control and treated wells were compared with test compound-treated cells to determine the 50% efficacious concentration (EC50) values. This methodology was augmented with an alternative method of immune-detection for p-Akt levels. Luminex detection of p-Akt used to directly assay the client effect, Akt, as well as the competency of the signaling cascade, as indicated by phosphorylation of S6 kinase.

[6] = test system: pErk; assay: AU565 imaging assay, pErk inhibition; settings: Homo sapiens, 24 hours treatment
Experimental: as §4

[7] = test system: pS6; assay: A375 imaging assay, pS6 inhibition; settings: Homo sapiens, A-375, 24 hours treatment
Experimental: as §4

[8] = test system: Her2; assay: AU565 imaging assay, Her2 degradation; settings: Homo sapiens, 24 hours treatment
Experimental: as §4

Compound | IC50 [1] | IC50 ([2]; NCI-H46 (Table 2A)) | IC50 [3] | IC50 [4] | EC50 [5] | EC50 [6] | EC50 [7] | EC50 [8] | IC50 ([2]; NCI-H460 (Table 2B))
Cc1nn(-c2cc(F)c(C(N)=O)c(NC3CCCCC3)c2)c2c1CCC(C)(C)C2 [EX-011, 2-(cyclohexylamino)-6-fluoro-4-(3,6,6-trimethyl-4,5,6,7-tetrahydro-1H-indazol-1-yl)benzamide] | 4280 nM | 8590 nM | 5120 nM | 9520 nM | – | – | – | – | –
Cc1nn(-c2cc(F)c(C(N)=O)c(N[C@H]3CC[C@H](O)CC3)c2)c2c1C=CC(C)(C)C2 [EX-008, 2-fluoro-6-((1r,4r)-4-hydroxycyclohexylamino)-4-(3,6,6-trimethyl-6,7-dihydro-1H-indazol-1-yl)benzamide] | 250 ± 77.5 nM | 142 ± 59 nM | 40.5 ± 7.9 nM | 69.7 ± 9.3 nM | 54 nM | 112 nM | 59.1 nM | 51 nM | –
Cc1nn(-c2cc(F)c(C(N)=O)c(N[C@H]3CCC[C@@H]3O)c2)c2c1CCC(C)(C)C2 [EX-007, 2-fluoro-6-((1S,2S)-2-hydroxycyclopentylamino)-4-(3,6,6-trimethyl-4,5,6,7-tetrahydro-1H-indazol-1-yl)benzamide] | 92.3 ± 32.7 nM | – | 74.1 ± 70.6 nM | 1 ± 0.466 nM | 0.092 nM | 1.5 nM | 4.3 nM | 0.366 nM | 41.4 ± 18.4 nM
Cc1nn(-c2cc(F)c(C(N)=O)c(N[C@H]3CCOC3)c2)c2c1CCC(C)(C)C2 [EX-013, (S)-2-fluoro-6-(tetrahydrofuran-3-ylamino)-4-(3,6,6-trimethyl-4,5,6,7-tetrahydro-1H-indazol-1-yl)benzamide] | 242 ± 118 nM | – | 160 ± 81.4 nM | 176 ± 145 nM | 77.7 nM | 360 nM | 156 nM | 329 nM | 3170 ± 791 nM
CC1=CC(C)(C)Cc2c1c(C)nn2-c1cc(F)c(C(N)=O)c(N[C@H]2CC[C@H](O)CC2)c1 [EX-017, 2-fluoro-6-((1R,4R)-4-hydroxycyclohexylamino)-4-(3,4,6,6-tetramethyl-6,7-dihydro-1H-indazol-1-yl)benzamide] | 1690 nM | 2130 nM | 1550 nM | 2580 nM | – | – | – | – | –
Cc1nn(-c2cc(F)c(C(N)=O)c(NC3CCCCC3)c2)c2c1C=CC(C)(C)C2 [EX-010, 2-(cyclohexylamino)-6-fluoro-4-(3,6,6-trimethyl-6,7-dihydro-1H-indazol-1-yl)benzamide] | 48000 nM | 5080 nM | 3310 nM | 2260 nM | – | – | – | – | –
Cc1nn(-c2cc(F)c(C(N)=O)c(NC3CCOC3)c2)c2c1C=CC(C)(C)C2 (stereo not drawn) [EX-012, 2-fluoro-6-(tetrahydrofuran-3-ylamino)-4-(3,6,6-trimethyl-6,7-dihydro-1H-indazol-1-yl)benzamide] | 172 ± 72.3 nM | – | < 80 nM | 242 ± 192 nM | 45.4 nM | 322 nM | 73.8 nM | 205 nM | 1380 ± 425 nM
Cc1nn(-c2cc(F)c(C(N)=O)c(N[C@H]3CC[C@H](O)CC3)c2)c2c1C(C)CC(C)(C)C2 (stereo partly drawn) [EX-016, 2-fluoro-6-((1R,4R)-4-hydroxycyclohexylamino)-4-(3,4,6,6-tetramethyl-4,5,6,7-tetrahydro-1H-indazol-1-yl)benzamide] | 6340 nM | 6550 nM | 6490 nM | 10200 nM | – | – | – | – | –
Cc1nn(-c2cc(F)c(C(N)=O)c(N[C@H]3CC[C@H](O)CC3)c2)c2c1CCC(C)(C)C2 [EX-009, 2-fluoro-6-((1r,4r)-4-hydroxycyclohexylamino)-4-(3,6,6-trimethyl-4,5,6,7-tetrahydro-1H-indazol-1-yl)benzamide] | 277 ± 81.8 nM | 167 ± 22.4 nM | 44.1 ± 6.1 nM | 76 ± 43.1 nM | 37.2 nM | 101 nM | 28.5 nM | 35.8 nM | –
Cc1nn(-c2cc(F)c(C(N)=O)c(N[C@@H]3CCCC[C@H]3O)c2)c2c1C=CC(C)(C)C2 [EX-014, 2-fluoro-6-((1R,2R)-2-hydroxycyclohexylamino)-4-(3,6,6-trimethyl-6,7-dihydro-1H-indazol-1-yl)benzamide] | 363 ± 57.4 nM | – | 364 ± 7.8 nM | 630 ± 106 nM | 464 nM | 457 nM | 115 nM | 329 nM | 1370 ± 325 nM
Cc1nn(-c2cc(F)c(C(N)=O)c(N[C@H]3CCCC[C@@H]3O)c2)c2c1CCC(C)(C)C2 [EX-015, 2-fluoro-6-((1S,2S)-2-hydroxycyclohexylamino)-4-(3,6,6-trimethyl-4,5,6,7-tetrahydro-1H-indazol-1-yl)benzamide] | 359 ± 42.4 nM | – | 344 ± 10.2 nM | 448 ± 50.2 nM | 346 nM | 820 nM | 241 nM | 667 nM | 1910 ± 513 nM
